Results taken from the supplement of paper PMC11451515.

System: NOMO1
Assay: cell viability relative to DMSO control; higher = less cytotoxic
Conditions: 48 h
In short: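 Three leukemia lines were tested: NOMO1 and SEM at 500 cells/well and P12-Ichikawa at 1000 cells/well. Each was adapted for at least four passages in each medium and seeded in 5 μl in 1536-well plates, and library compounds in DMSO were pin-dosed from 47 μM to 0.79 nM in 11 threefold steps. After 48 h at 37°C, CellTiter-Glo One luminescence was read. Viability is a percentage relative to DMSO wells on each plate, with cell-free wells as background.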

[1] = HPLM + 10% dialyzed FBS, 0.000781 µM
[2] = HPLM + 10% dialyzed FBS, 0.00234 µM
[3] = HPLM + 10% dialyzed FBS, 0.00702 µM
[4] = HPLM + 10% dialyzed FBS, 0.0211 µM
[5] = HPLM + 10% dialyzed FBS, 0.0632 µM
[6] = HPLM + 10% dialyzed FBS, 0.19 µM
[7] = HPLM + 10% dialyzed FBS, 0.569 µM
[8] = HPLM + 10% dialyzed FBS, 1.71 µM
[9] = HPLM + 10% dialyzed FBS, 5.12 µM
[10] = HPLM + 10% dialyzed FBS, 15.4 µM
[11] = HPLM + 10% dialyzed FBS, 46.1 µM
[12] = RPMI 5 mM glucose + 10% FBS, 0.000781 µM
[13] = RPMI 5 mM glucose + 10% FBS, 0.00234 µM
[14] = RPMI 5 mM glucose + 10% FBS, 0.00702 µM
[15] = RPMI 5 mM glucose + 10% FBS, 0.0211 µM
[16] = RPMI 5 mM glucose + 10% FBS, 0.0632 µM
[17] = RPMI 5 mM glucose + 10% FBS, 0.19 µM
[18] = RPMI 5 mM glucose + 10% FBS, 0.569 µM
[19] = RPMI 5 mM glucose + 10% FBS, 1.71 µM
[20] = RPMI 5 mM glucose + 10% FBS, 5.12 µM
[21] = RPMI 5 mM glucose + 10% FBS, 15.4 µM
[22] = RPMI 5 mM glucose + 10% FBS, 46.1 µM
[23] = RPMI 5 mM glucose + 10% dialyzed FBS, 0.000781 µM
[24] = RPMI 5 mM glucose + 10% dialyzed FBS, 0.00234 µM
[25] = RPMI 5 mM glucose + 10% dialyzed FBS, 0.00702 µM
[26] = RPMI 5 mM glucose + 10% dialyzed FBS, 0.0211 µM
[27] = RPMI 5 mM glucose + 10% dialyzed FBS, 0.0632 µM
[28] = RPMI 5 mM glucose + 10% dialyzed FBS, 0.19 µM
[29] = RPMI 5 mM glucose + 10% dialyzed FBS, 0.569 µM
[30] = RPMI 5 mM glucose + 10% dialyzed FBS, 1.71 µM
[31] = RPMI 5 mM glucose + 10% dialyzed FBS, 5.12 µM
[32] = RPMI 5 mM glucose + 10% dialyzed FBS, 15.4 µM
[33] = RPMI 5 mM glucose + 10% dialyzed FBS, 46.1 µM

Structure (SMILES)	cell viability [1] [%]	cell viability [2] [%]	cell viability [3] [%]	cell viability [4] [%]	cell viability [5] [%]	cell viability [6] [%]	cell viability [7] [%]	cell viability [8] [%]	cell viability [9] [%]	cell viability [10] [%]	cell viability [11] [%]	cell viability [12] [%]	cell viability [13] [%]	cell viability [14] [%]	cell viability [15] [%]	cell viability [16] [%]	cell viability [17] [%]	cell viability [18] [%]	cell viability [19] [%]	cell viability [20] [%]	cell viability [21] [%]	cell viability [22] [%]	cell viability [23] [%]	cell viability [24] [%]	cell viability [25] [%]	cell viability [26] [%]	cell viability [27] [%]	cell viability [28] [%]	cell viability [29] [%]	cell viability [30] [%]	cell viability [31] [%]	cell viability [32] [%]	cell viability [33] [%]
CC(C)Oc1cc(Nc2nc(N[C@@H](C)c3ccc(F)cn3)ncc2Cl)n[nH]1	104	113	120	114	99	96.8	127	94.1	101	108	92.4	107	100	111	110	104	104	116	53.7	60.4	68	72.6	101	109	115	100	134	110	110	61.6	57.6	68.9	85.9
C\C1=C\C(=O)C2=C(C=CC=C2)C1=O	100	122	117	134	132	126	126	134	128	131	127	116	108	120	125	133	133	137	124	129	125	140	119	117	131	130	140	128	135	151	128	148	134
CC(C)[C@@H](C[S+](=O)([O-])C(C)C)N1C(=O)[C@@](C)(CC(=O)O)C[C@H](c2cccc(Cl)c2)[C@H]1c1ccc(Cl)cc1	122	115	129	143	140	97.9	36.4	35.6	31.2	33.6	29.3	128	106	113	109	121	128	111	64.8	24.5	19.5	22.2	117	98.5	108	112	145	132	98.5	65.9	47.1	25.2	19.1
C[N+]1(C)[C@@H]2C[C@@H](OC(=O)[C@H](CO)c3ccccc3)C[C@H]1[C@@H]1O[C@@H]12.[Br-]	91.9	95.1	108	113	105	99.4	86.5	93.5	99.5	89.2	101	95.5	91.8	86.6	89.4	85	88.5	86.9	90.3	90.4	86.1	86.8	83	90.5	86.9	91	91.6	90.8	91.6	97.2	107	89	98.7
